Results taken from paper PMC1847690 (PLoS Pathogens, 2007).

How the values were obtained:
[1] = biological target: PknK kinase domain (PknK1–289) (Mycobacterium tuberculosis, UniProt P9WI65)
UsfX (Rv3287c) = biological target: T1, UsfX (Rv3287c) (Mycobacterium tuberculosis, UniProt P9WGX7)
T1 construct: gene rsbW

[2] = biological target: PknE kinase domain (PknE1–286) (Mycobacterium tuberculosis, UniProt P9WI77)
[3] = biological target: PknB kinase domain (PknB1–308) (Mycobacterium tuberculosis, UniProt P9WI81)
[4] = biological target: PknA kinase domain (PknA1–337) (Mycobacterium tuberculosis, UniProt P9WI83)
[5] = biological target: PknD kinase domain (PknD1–378) (Mycobacterium tuberculosis, UniProt P9WI79)
Chain of PknD kinase domain (PknD1–378) (P9WI79 1-378): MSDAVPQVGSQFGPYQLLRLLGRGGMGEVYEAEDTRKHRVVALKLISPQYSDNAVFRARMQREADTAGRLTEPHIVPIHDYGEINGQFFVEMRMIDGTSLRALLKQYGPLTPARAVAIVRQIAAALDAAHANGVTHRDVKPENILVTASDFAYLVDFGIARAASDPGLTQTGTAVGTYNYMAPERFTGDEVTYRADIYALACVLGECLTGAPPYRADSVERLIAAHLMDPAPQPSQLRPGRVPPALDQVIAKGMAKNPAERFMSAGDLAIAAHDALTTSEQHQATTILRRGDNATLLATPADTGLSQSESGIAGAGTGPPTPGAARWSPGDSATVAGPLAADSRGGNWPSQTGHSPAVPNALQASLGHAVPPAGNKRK

Chain of PknE kinase domain (PknE1–286) (P9WI77 1-286): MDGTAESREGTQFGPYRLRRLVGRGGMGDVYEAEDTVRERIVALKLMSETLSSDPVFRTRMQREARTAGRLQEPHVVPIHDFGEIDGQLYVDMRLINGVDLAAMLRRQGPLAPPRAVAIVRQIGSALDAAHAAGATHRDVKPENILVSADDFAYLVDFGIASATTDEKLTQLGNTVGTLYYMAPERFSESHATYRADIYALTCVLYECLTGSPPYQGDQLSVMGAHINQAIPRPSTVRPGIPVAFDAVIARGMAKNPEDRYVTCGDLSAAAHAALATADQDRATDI
Chain of PknA kinase domain (PknA1–337) (P9WI83 1-337): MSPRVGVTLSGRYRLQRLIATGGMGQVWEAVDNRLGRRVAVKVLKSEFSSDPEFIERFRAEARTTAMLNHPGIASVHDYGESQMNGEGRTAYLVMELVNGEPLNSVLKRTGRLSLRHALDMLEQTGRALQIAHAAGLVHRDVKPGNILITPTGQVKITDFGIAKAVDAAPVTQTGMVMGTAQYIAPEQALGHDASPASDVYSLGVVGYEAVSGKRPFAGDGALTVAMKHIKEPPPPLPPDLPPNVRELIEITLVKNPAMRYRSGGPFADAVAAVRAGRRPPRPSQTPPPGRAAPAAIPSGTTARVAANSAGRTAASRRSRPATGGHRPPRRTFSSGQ
T1 sequence (P9WGX7 whole entry): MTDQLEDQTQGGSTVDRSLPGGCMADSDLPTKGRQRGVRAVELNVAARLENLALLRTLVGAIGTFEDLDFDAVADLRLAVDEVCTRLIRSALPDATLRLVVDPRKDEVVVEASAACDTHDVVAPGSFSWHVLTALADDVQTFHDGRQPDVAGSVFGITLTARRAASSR
Chain of PknB kinase domain (PknB1–308) (P9WI81 1-308): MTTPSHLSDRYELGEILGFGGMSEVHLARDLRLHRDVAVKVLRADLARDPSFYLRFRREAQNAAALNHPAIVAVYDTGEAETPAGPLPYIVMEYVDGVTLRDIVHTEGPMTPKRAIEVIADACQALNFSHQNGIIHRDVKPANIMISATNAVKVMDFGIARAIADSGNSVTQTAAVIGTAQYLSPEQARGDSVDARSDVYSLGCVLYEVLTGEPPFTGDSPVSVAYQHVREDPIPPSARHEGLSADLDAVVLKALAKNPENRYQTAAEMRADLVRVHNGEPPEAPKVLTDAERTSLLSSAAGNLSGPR
Chain of PknK kinase domain (PknK1–289) (P9WI65 1-289): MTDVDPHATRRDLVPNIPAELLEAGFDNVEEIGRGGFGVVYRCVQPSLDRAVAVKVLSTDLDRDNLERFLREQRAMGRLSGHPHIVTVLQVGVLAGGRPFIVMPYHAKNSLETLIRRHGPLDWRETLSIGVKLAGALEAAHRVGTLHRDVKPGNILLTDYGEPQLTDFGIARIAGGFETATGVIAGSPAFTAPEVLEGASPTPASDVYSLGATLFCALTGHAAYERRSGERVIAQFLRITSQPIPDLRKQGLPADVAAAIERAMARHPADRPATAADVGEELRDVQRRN

Row | SMILES | [γ-32P]ATP transfer to MyBP, autoradiography [1] | phosphorylation of MyBP, autoradiography (UsfX (Rv3287c)) | [γ-32P]ATP transfer to Rv0516c, RshA, Rv1904 and RsfA, autoradiography [2] | [γ-32P]ATP transfer to Rv0516c and RshA, autoradiography [3] | [γ-32P]ATP transfer to MyBP and the MBP tag, autoradiography [4] | dose-dependent inhibition [5]
1 | Nc1ncnc2c1ncn2[C@@H]1O[C@H](COP(=O)(O)OP(=O)(O)OP(=O)(O)O)[C@@H](O)[C@H]1O [ATP] | At concentrations of each kinase domain equally active in phosphorylating the nonspecific substrate, MyBP | we incubated these proteins under conditions in which UsfX phosphorylated the model substrate | PknE weakly phosphorylated Rv1904 and RsfA (Rv1365c) | PknB and PknE also phosphorylated the anti–sigma factor RshA (Rv3221A) | The MBP tag was phosphorylated by the PknA, PknB, and PknE kinase domains | 
2 | O=C1c2ccccc2-c2n[nH]c3cccc1c23 [SP600125] |  |  |  |  |  | The SP600125 inhibitor blocked this Rv0516c phosphorylation (Figure 3B) in a dose-dependent manner
